Reference: patent US4755594A, “N^6 -substituted adenosines” (Warner-Lambert Company, priority 1986, dated 1988)

Assays:
adenosine A1 receptor = target: T1, adenosine A1 receptor (Rattus norvegicus, UniProt P25099); assay: Adenosine Receptor Binding--A1 Receptor Affinity (RBA1), [3H]-CHA, whole brain membranes; conditions: read-out: RBA-1 IC50
T1 construct: Whole brain minus cerebellum and brainstem from male Long-Evans rats; from tissue; host or cells: whole brain minus cerebellum and brainstem, male Long-Evans rats
T1 sequence (P25099 1-326): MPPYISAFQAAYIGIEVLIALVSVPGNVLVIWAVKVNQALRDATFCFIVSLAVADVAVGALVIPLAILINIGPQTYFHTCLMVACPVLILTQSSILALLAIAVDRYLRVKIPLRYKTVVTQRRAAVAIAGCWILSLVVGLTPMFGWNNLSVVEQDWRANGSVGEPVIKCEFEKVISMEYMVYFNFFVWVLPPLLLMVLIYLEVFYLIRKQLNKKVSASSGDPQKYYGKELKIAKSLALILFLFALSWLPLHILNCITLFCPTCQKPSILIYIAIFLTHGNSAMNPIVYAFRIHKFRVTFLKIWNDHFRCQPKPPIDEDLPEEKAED
Protocol: Adenosine Receptor Binding--A1 Receptor Affinity (RBA1 )
Whole brain minus cerebellum and brainstem from male Long-Evans rats (150-200 g) was homogenized in 30 volumes of ice-cold 0.05M Tris-HCl buffer pH 7.7 using a Brinkman Polytron PT-10, (setting number 6 for 20 seconds) and centrifuged for ten minutes at 20,000 xg (Sorvall RC-2), 4° C. The supernatant was discarded, and the pellet was resuspended and centrifuged as before. The pellet was resuspended in 20 ml Tris-HCl buffer containing two International Units/ml of adenosine deaminase (Sigma type III from calf intestinal mucosa), incubated at 37° C. for 30 minutes, then subsequently at 0° C. for ten minutes. The homogenate was again centrifuged, and the final pellet was resuspended in ice-cold 0.05M Tris-HCl buffer pH 7.7 to a concentration of 20 mg/ml original wet tissue weight and used immediately.
Tissue homogenate (10 mg/ml) was incubated in 0.05M Tris-HCl buffer pH 7.7 containing 1.0 nM [^3 H]--N^6 -cyclohexyladenosine ([^3 H]--CHA) with or without test agents in triplicate for one hour at 25° C. Incubation volume was 2 ml. Unbound [^3 H]--CHA was separated by rapid filtration under reduced pressure through Whatman glass fiber (GF/B) filters. The filters were rinsed three times with 5 ml of ice cold 0.05M Tris-HCl buffer pH 7.7. The radio-labeled ligand retained on the filter was measured by liquid scintillation spectrophotometry after shaking the filters for one hour or longer on a mechanical shaker in 10 ml of Beckman Ready-Solv HP scintillation cocktail.
Nonspecific binding was defined as the binding which occurred in the presence of 1 mM theophylline. The concentration of test agent which inhibited 50% of the specific binding (IC50) was determined by nonlinear computer curve fit. The Scatchard plot was calculated by linear regression of the line obtained by plotting the amount of radioligand bound (pmoles/gram of tissue) [formula] Since the amount of radioligand bound was a small fraction of the total amount added, free radioligand was defined as the concentration of (nM) of radioligand added to the incubation mixture. The Hill coefficient was calculated by linear regression of the line obtained by plotting the log of the bound radioligand vs the log of the [formula] The maximal number of binding sites (Bmax) was calculated from the Scatchard plot.

[1] = Activity and screen test, rat orally: screen test; type: in vivo; conditions: orally (PO)
Protocol: A two part testing procedure is started one hour postinjection. First, the screen test (ST) is performed (see Pharmac. Biochem. Behav. 6, 351-353, 1977). Briefly this test consists of placing mice on individual wire screens which are then rotated 180 degrees at the start of a 60 second observation period. The number of mice falling off the inverted screen is recorded.
The data obtained from the screen test are expressed as percent of mice falling off the screen. Data derived from locomotor activity of drug treated mice are compared to the activity of vehicle treated animals and are expressed as percent inhibition of spontaneous locomotion. All percentages reported for inhibition of locomotion (LI) are based upon data accumulated for one hour. Both phases of testing are graded: A=60-100%; C=31-59%; and N=0-30%. An overall dose rating is obtained by the following criteria: […]

[2] = Activity and screen test, rat orally: inhibition of motor activity; type: in vivo; conditions: orally (PO)
adenosine A2 receptor = target: T2, adenosine A2 receptor (Rattus norvegicus, UniProt P30543); assay: Adenosine Receptor Binding--A2 Receptor Affinity (RBA2), [3H]NECA, striatal membranes; conditions: read-out: RBA-2 IC50
T2 construct: Brains were thawed and then kept on ice while the striata were dissected out; tissue Pel-Freez (Rogers, Ark.); host or cells: striata of Sprague-Dawley rats (Long-Evans hooded rats gave essentially identical results)
Protocol: Adenosine Receptor Binding--A2 Receptor Affinity (RBA2)
Brains from 200-500 g mixed sex Sprague-Dawley rats were purchased from Pel-Freez (Rogers, Ark.). Fresh brains from male Long-Evans hooded rats (Blue Spruce Farms, Altamont, NY) gave essentially identical results. Brains were thawed and then kept on ice while the striata were dissected out. Striata were disrupted in 10 vol of ice-cold 50 mM Tris.HCl (pH 7.7 at 25° C., pH 8.26 at 5° C.) (Tris) for 30 seconds in a Polytron PT-10 (Brinkmann) at setting 5. The suspension was centrifuged at 50,000 xg for ten minutes, the supernatant discarded, the pellet resuspended in 10 vol ice-cold Tris as above, recentrifuged, resuspended at 1 g/5ml, and stored in plastic vials at -70° C. (stable for at least six months). When needed, tissue was thawed at room temperature, disrupted in a Polytron, and kept on ice until used.
All incubations were for 60 minutes at 25° C. in 12×75 mm glass tubes containing 1 ml Tris with 5 mg original tissue weight of rat weight of rat striatal membranes, 4 nM [^3 H]--N-ethyl adenosine-5'-carboxamide ([^3 H]NECA), 50 nM N^6 -cyclopentyladenosine (to eliminate A1 receptor binding), 10 mM MgCl2, 0.1 units/ml of adenosine deaminase and 1% dimethylsulfoxide. N^6 -Cyclopentyladenosine was dissolved at 10 mM in 0.02N HCl and diluted in Tris. Stock solutions and dilutions of N^6 -cyclopentyladenosine could be stored at -20° C. for several months. Test compounds were dissolved at 10 mM in dimethylsulfoxide on the same day as the experiment, and diluted in dimethylsulfoxide to 100×the final incubation concentration. Control incubations received an equal volume (10 μl) of dimethylsulfoxide; the resulting concentration of dimethylsulfoxide had no effect on binding. [^3 H]NECA was diluted to 40 nM in Tris. The membrane suspension (5 mg/0.79 ml) contained sufficient MgCl2 and adenosine deaminase to give 10 mM and 0.1 units/ml, respectively, final concentration in the incubation. […] After all additions, the rack of tubes was vortexed, and the tubes were then incubated for 60 min at 25° C. in a shaking water bath. The rack of tubes was vortexed an additional time halfway through the incubation.
Incubations were terminated by filtration through 2.4 cm GF/B filters under reduced pressure. Each tube was filtered as follows: the contents of the tube were poured on the filter, 4 ml of ice-cold Tris were added to the tube and the contents poured onto the filter, and the filter was washed twice with 4 ml of ice-cold Tris. The filtration was complete in about twelve seconds. Filters were put in scintillation vials, 8 ml of Formula 947 scintillation fluid added, and the vials left overnight, shaken, and counted in a liquid scintillation counter at 40% efficiency.
Nonspecific binding was defined as binding in the presence of 100 μM N^6 -cyclopentyladenosine, and specific binding was defined as total binding minus nonspecific binding. The IC50 was calculated by weighted nonlinear least squares curve-fitting to the mass-action equation. [formula] where Y is cpm bound
T is cpm total binding without drug
S is cpm specific binding without drug
D is the concentration of drug and
K is the IC50 of the drug
Weighting factors were calculated under the assumption that the standard deviation was proportional to the predicted value of Y. Nonspecific binding was treated as a very large (infinite) concentration of drug in the computer analysis.

T2 sequence (P30543 whole entry): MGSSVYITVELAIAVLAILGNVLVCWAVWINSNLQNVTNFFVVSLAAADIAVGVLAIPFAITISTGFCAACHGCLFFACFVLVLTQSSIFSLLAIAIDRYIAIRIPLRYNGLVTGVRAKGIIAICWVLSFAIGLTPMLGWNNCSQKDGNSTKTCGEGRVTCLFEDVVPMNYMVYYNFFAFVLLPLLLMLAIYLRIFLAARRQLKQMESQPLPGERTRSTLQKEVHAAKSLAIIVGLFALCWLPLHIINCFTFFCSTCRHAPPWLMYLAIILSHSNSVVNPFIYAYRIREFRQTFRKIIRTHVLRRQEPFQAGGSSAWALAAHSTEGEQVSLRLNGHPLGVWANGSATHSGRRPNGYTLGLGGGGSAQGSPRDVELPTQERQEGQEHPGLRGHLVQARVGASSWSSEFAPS

Compound: [O-][n+]1cnc2c(ncn2[C@@H]2O[C@H](CO)[C@@H](O)[C@H]2O)c1NCC1(c2ccccc2)CC1 [Example 4, N6-((1-Phenylcyclopropyl)methyl)adenosine-N1-oxide]
- IC50 (adenosine A1 receptor): 6.5 µM
- Inhibition of screen test failure ([1]; 1 mg/kg): 11%
- Inhibition of screen test failure ([1]; 3 mg/kg): 0%
- Inhibition of screen test failure ([1]; 10 mg/kg): 0%
- Inhibition of motor activity ([2]; 1 mg/kg): 2%
- Inhibition of motor activity ([2]; 3 mg/kg): 15%
- Inhibition of motor activity ([2]; 10 mg/kg): 2%
- IC50 (adenosine A2 receptor): 35 µM
